According to patent publication US20040052837A1, “Lipid conjugated anti-cancer drugs and methods of use thereof” (priority 2002, published 2004):

System: phospholipase A2
Settings: SUVs with 18:0,18:2-PC 80/20 mol %, Tris pH 8.8, 20 min

SMILES: CCCCCCCCCCCCCCCCCC(=O)OCC(COP(=O)([O-])OCC[N+](C)(C)C)OC(=O)CCCc1ccc(N(CCCl)CCCl)cc1 (stereo not shown) [18:0, Chlorambucil-PC]
- hydrolysis by phospholipase A2: total
